In patent publication US11813250B2, “Topical formulations containing mTOR inhibitors” (Shanghai Aucta Pharmaceuticals Co., Ltd., priority 2020, dated 2023):
Values after ≈ are worked out from the molar mass of the structure shown. Like-named read-outs stand apart in the source and are kept apart here.

What was measured:
[1] = Solubility in topical solvents; assay type: physicochemical; details: organic solvent or mixture
Method: This example evaluated sirolimus and everolimus solubility and stability in various FDA approved topical solvents and co-solvent systems such as diethylene glycol monoethyl ether (Transcutol® P as manufactured by Gattefosse), N-Methyl-2-pyrrolidone (NMP), dimethyl sulfoxide (DMSO), ethanol, Caprylocaproyl polyoxyl-8 glycerides (Labrasol® as manufactured by Gattefosse) and propylene carbonate combined or alone.
The melting point of DMSO is 19° C. (66° F.; 292 K), thus it will freeze under refrigerated condition.

[2] = Seco-Rapamycin in various solvents under 40° C. for 24 hr; assay type: physicochemical; details: for percentage of Seco-Rapamycin in the overall amount of sirolimus: 40° C.
Method: (§1) Sirolimus concentrations are at 20 mg/ml in the solvent and co-solvent systems. The solution was stored at 40° C. oven and samples were evaluated at time 0, 1, 4 and 24 hours with HPLC analysis.
Seco-Rapamycin is a major decomposition product of sirolimus, the open ring conformation of Rapamycin (sirolimus), is also quantitated in the solvent systems. […] The initial concentrations of Seco-Rapamycin were undetectable in the tested samples. Less than 0.5% of sirolimus converted or degraded to Seco-Rapamycin in Propylene Carbonate, DMSO and NMP.

[3] = cited from earlier work
[4] = Sirolimus isomer C stability in various solvents under 40° C. for 24 hr (HPLC); assay type: physicochemical
Method: as §1

[5] = Everolimus isomer C stability study in various solvents at 50° C.; assay type: physicochemical
Method: The formulation of this example was prepared in substantially the same manner as the composition of Example 1.
Experiments were performed to study the stability of everolimus in Transcutol P, NMP, DMSO and propylene carbonate under 40° C. at concentration of 20 mg/ml and everolimus in Transcutol P, NMP, DMSO, ethanol, Labrasol and propylene carbonate under 50° C. at concentration of 80 mg/ml. […] DMSO, NMP and propylene carbonate stabilized sirolimus and everolimus and could be used as dissolving agents together or separately.
Everolimus concentrations are at 80 mg/ml in the solvent and co-solvent systems. The said solution was stored at 50° C. oven and samples were evaluated at time 0, 1 h, 2 h and 4 h.

[6] = DMSO, room temperature, read-out: solubility in DMSO
[7] = N-Methyl-2-pyrrolidone (NMP), both room temperature and refrigerated condition, read-out: solubility in NMP
[8] = Transcutol P (diethylene glycol monoethyl ether), both room temperature and refrigerated condition, read-out: solubility in Transcutol P
[9] = propylene carbonate, both room temperature and refrigerated condition, read-out: solubility in propylene carbonate

CO[C@H]1C[C@@H]2CC[C@@H](C)[C@@](O)(O2)C(=O)C(=O)N2CCCC[C@H]2C(=O)O[C@H]([C@H](C)C[C@@H]2CC[C@@H](O)[C@H](OC)C2)CC(=O)[C@H](C)/C=C(\C)[C@@H](O)[C@@H](OC)C(=O)[C@H](C)C[C@H](C)/C=C/C=C/C=C/1C [Sirolimus]
solubility [1, 6]: > 100 mg/mL | solubility [1, 7]: > 100 mg/mL | solubility [1, 8]: > 80 mg/mL | solubility [1, 9]: ~30 mg/mL (≈ 32.8 mM) | initial concentrations of Seco-Rapamycin ([2]; in the tested samples, time 0): undetectable | percentage of Seco-Rapamycin in the overall amount of sirolimus ([2]; sirolimus in 50% NMP + 50% DMSO, 4 h): 0.09% | percentage of Seco-Rapamycin in the overall amount of sirolimus ([2]; sirolimus in 50% NMP + 50% DMSO, 24 h): 0.13% | percentage of Seco-Rapamycin in the overall amount of sirolimus ([2]; sirolimus in DMSO, 4 h): 0.23% | percentage of Seco-Rapamycin in the overall amount of sirolimus ([2]; sirolimus in DMSO, 24 h): 0.44% | percentage of Seco-Rapamycin in the overall amount of sirolimus ([2]; sirolimus in NMP, 4 h): 0.12% | percentage of Seco-Rapamycin in the overall amount of sirolimus ([2]; sirolimus in NMP, 24 h): 0.26% | percentage of Seco-Rapamycin in the overall amount of sirolimus ([2]; sirolimus in Propylene Carbonate, 24 h): 0.08% | percentage of Seco-Rapamycin in the overall amount of sirolimus ([2]; sirolimus in Transcutol P, 0 h): 0.20% | percentage of Seco-Rapamycin in the overall amount of sirolimus ([2]; sirolimus in Transcutol P, 1 h): 0.23% | percentage of Seco-Rapamycin in the overall amount of sirolimus ([2]; sirolimus in Transcutol P, 4 h): 0.76% | percentage of Seco-Rapamycin in the overall amount of sirolimus ([2]; sirolimus in Transcutol P, 24 h): 1.06% | water solubility [3]: poorly water-soluble | sirolimus converted to isomer C after time 0 ([4]; in NMP, DMSO and propylene carbonate within 24 hours): less than 1.5% | Isomer C level (%) ([4]; sirolimus 20 mg/ml in 50% NMP + 50% DMSO, 0 h): 1.07% | Isomer C level (%) ([4]; sirolimus 20 mg/ml in 50% NMP + 50% DMSO, 1 h): 1.15% | Isomer C level (%) ([4]; sirolimus 20 mg/ml in 50% NMP + 50% DMSO, 4 h): 1.46% | Isomer C level (%) ([4]; sirolimus 20 mg/ml in 50% NMP + 50% DMSO, 24 h): 1.46% | Isomer C level (%) ([4]; sirolimus 20 mg/ml in DMSO, 0 h): 1.51% | Isomer C level (%) ([4]; sirolimus 20 mg/ml in DMSO, 1 h): 1.23% | Isomer C level (%) ([4]; sirolimus 20 mg/ml in DMSO, 4 h): 1.72% | Isomer C level (%) ([4]; sirolimus 20 mg/ml in DMSO, 24 h): 2.50% | Isomer C level (%) ([4]; sirolimus 20 mg/ml in NMP, 0 h): 1.00% | Isomer C level (%) ([4]; sirolimus 20 mg/ml in NMP, 1 h): 1.02% | Isomer C level (%) ([4]; sirolimus 20 mg/ml in NMP, 4 h): 1.21% | Isomer C level (%) ([4]; sirolimus 20 mg/ml in NMP, 24 h): 1.46% | Isomer C level (%) ([4]; sirolimus 20 mg/ml in Propylene Carbonate, 0 h): 1.12% | Isomer C level (%) ([4]; sirolimus 20 mg/ml in Propylene Carbonate, 1 h): 1.12% | Isomer C level (%) ([4]; sirolimus 20 mg/ml in Propylene Carbonate, 4 h): 1.46% | Isomer C level (%) ([4]; sirolimus 20 mg/ml in Propylene Carbonate, 24 h): 2.77% | Isomer C level (%) ([4]; sirolimus 20 mg/ml in Transcutol P, 0 h): 4.93% | Isomer C level (%) ([4]; sirolimus 20 mg/ml in Transcutol P, 1 h): 7.11% | Isomer C level (%) ([4]; sirolimus 20 mg/ml in Transcutol P, 4 h): 8.14% | Isomer C level (%) ([4]; sirolimus 20 mg/ml in Transcutol P, 24 h): 8.18%

CO[C@H]1C[C@@H]2CC[C@@H](C)[C@@](O)(O2)C(=O)C(=O)N2CCCC[C@H]2C(=O)O[C@H]([C@H](C)C[C@@H]2CC[C@@H](OCCO)[C@H](OC)C2)CC(=O)[C@H](C)/C=C(\C)[C@@H](O)[C@@H](OC)C(=O)[C@H](C)C[C@H](C)/C=C/C=C/C=C/1C [Everolimus]
solubility [1, 6]: > 200 mg/mL | solubility [1, 7]: > 100 mg/mL | solubility [1, 8]: > 100 mg/mL | solubility [1, 9]: > 100 mg/mL | Isomer C level (%) ([5]; everolimus 80 mg/ml in DMSO, 0 h): 1.63% | Isomer C level (%) ([5]; everolimus 80 mg/ml in DMSO, 1 h): 1.67% | Isomer C level (%) ([5]; everolimus 80 mg/ml in DMSO, 2 h): 1.73% | Isomer C level (%) ([5]; everolimus 80 mg/ml in DMSO, 4 h): 1.86% | Isomer C level (%) ([5]; everolimus 80 mg/ml in Ethanol, 0 h): 1.85% | Isomer C level (%) ([5]; everolimus 80 mg/ml in Ethanol, 1 h): 2.66% | Isomer C level (%) ([5]; everolimus 80 mg/ml in Ethanol, 2 h): 3.81% | Isomer C level (%) ([5]; everolimus 80 mg/ml in Ethanol, 4 h): 5.40% | Isomer C level (%) ([5]; everolimus 80 mg/ml in NMP, 0 h): 1.62% | Isomer C level (%) ([5]; everolimus 80 mg/ml in NMP, 1 h): 1.76% | Isomer C level (%) ([5]; everolimus 80 mg/ml in NMP, 2 h): 1.86% | Isomer C level (%) ([5]; everolimus 80 mg/ml in NMP, 4 h): 1.99% | Isomer C level (%) ([5]; everolimus 80 mg/ml in Propylene Carbonate, 0 h): 1.63% | Isomer C level (%) ([5]; everolimus 80 mg/ml in Propylene Carbonate, 1 h): 1.84% | Isomer C level (%) ([5]; everolimus 80 mg/ml in Propylene Carbonate, 2 h): 2.06% | Isomer C level (%) ([5]; everolimus 80 mg/ml in Propylene Carbonate, 4 h): 2.47% | Isomer C level (%) ([5]; everolimus 80 mg/ml in Transcutol P, 0 h): 1.71% | Isomer C level (%) ([5]; everolimus 80 mg/ml in Transcutol P, 1 h): 3.78% | Isomer C level (%) ([5]; everolimus 80 mg/ml in Transcutol P, 2 h): 5.26% | Isomer C level (%) ([5]; everolimus 80 mg/ml in Transcutol P, 4 h): 6.43% | increase of the assay of everolimus isomer C ([5]; from 0 h to 4 h in DMSO, propylene carbonate and NMP, 80 mg/ml): less than 1.5% | water solubility [3]: poorly water-soluble
